According to patent US8853171B2, “1′-substituted carba-nucleoside analogs for antiviral treatment” (Gilead Sciences, Inc., priority 2008, dated 2014):

Key:
[1] = tested on: HCV replicon cells; assay: HCV EC50 determination: replicon luciferase assay; assay type: cell-based; conditions: Hepatitis C virus, 72 h, 3 days incubation, luciferase activity
Protocol: Replicon cells were seeded in 96-well plates at a density of 8×10^3 cells per well in 100 μL of culture medium, excluding Geneticin. Compound was serially diluted in 100% DMSO and then added to the cells at a 1:200 dilution, achieving a final concentration of 0.5% DMSO and a total volume of 200 μL. Plates were incubated at 37° C. for 3 days, after which culture medium was removed and cells were lysed in lysis buffer provided by Promega's luciferase assay system. Following the manufacturer's instruction, 100 μL of luciferase substrate was added to the lysed cells and luciferase activity was measured in a TopCount luminometer.

[2] = target: T1, HCV Δ21 NS5b polymerase (Hepatitis C virus genotype 1b, UniProt Q9WMX2); assay: HCV IC50 determination: NS5b polymerase assay; assay type: biochemical
T1 construct: 75 nM HCV Δ21 NS5b polymerase
Protocol: Assay Protocol: NS5b polymerase assay (40 μL) was assembled by adding 28 μL polymerase mixture (final concentration: 50 mM Tris-HCl at pH 7.5, 10 mM KCL, 5 mM MgCl2, 1 mM DTT, 10 mM EDTA, 4 ng/μL of RNA template, and 75 nM HCV Δ21 NS5b polymerase) to assay plates followed by 4 μL of compound dilution. The polymerase and compound were pre-incubated at 35° C. for 10 minute before the addition of 8 μL of nucleotide substrate mixture (33P-α-labeled competing nucleotide at KM and 0.5 mM of the remaining three nucleotides). The assay plates were covered and incubated at 35° C. for 90 mM. Reactions were then filtered through 96-well DEAE-81 filter plates via vacuum. The filter plates were then washed under vacuum with multiple volumes of 0.125 M NaHPO4, water, and ethanol to remove unincorporated label. Plates were then counted on TopCount to assess the level of product synthesis over background controls. The IC50 value is determined using Prism fitting program.

| Structure (SMILES) | EC50 [1] | IC50 [2] |
| --- | --- | --- |
| C[C@@]1(O)[C@H](O)[C@@H](CO)OC1(O)c1ccc2c(N)ncnn12 (some centres unmarked) [Compound 2] | 10 to 100 µM | – |
| CO[C@@]1(c2ccc3c(N)ncnn23)O[C@H](CO)[C@@H](O)[C@@]1(C)O [Compound 3] | 10 to 100 µM | – |
| C[C@@]1(c2ccc3c(N)ncnn23)O[C@H](CO)[C@@H](O)[C@@]1(C)O [Compound 4] | 10 to 100 µM | – |
| C[C@@]1(O)[C@H](O)[C@@H](CO)O[C@@]1(C#N)c1ccc2c(N)ncnn12 [Compound 5] | 10 to 100 µM | – |
| CC(C)(C)C(=O)SCCOP(=O)(OCCSC(=O)C(C)(C)C)OC[C@H]1O[C@@](C#N)(c2ccc3c(N)ncnn23)[C@](C)(O)[C@@H]1O [Compound 6] | < 1 µM | – |
| CO[C@@]1(c2ccc3c(N)ncnn23)O[C@H](CO)[C@@H](O)[C@H]1O [Compound 12] | 1 to 10 µM | – |
| N#C[C@@]1(c2ccc3c(N)ncnn23)O[C@H](CO)[C@@H](O)[C@H]1O [Compound 13] | 1 to 10 µM | – |
| C[C@@]1(O)[C@H](O)[C@@H](COP(=O)(O)O)O[C@@]1(C#N)c1ccc2c(N)ncnn12 [Compound 17] | – | < 1 µM |
